Reference: patent US20080089860A1, “Therapeutic compositions and methods useful in treating cancer” (priority 2006, published 2008)

Key:
[1] = system: Jak2/Stat5 and cellular protein tyrosine phosphorylation in Baf3 cells; experiment: Cellular protein phosphorylation and Western blotting in Baf3 cells; type: cell-based, murine
Procedure: For induction of cellular protein phosphorylation by sodium stibogluconate or pervanadate, Baf3 cells were incubated in 0.1% FCS-RPMI 1640 medium at 37° C. for 16 hours. The cells were then washed twice in RPMI 1640 medium and incubated with sodium stibogluconate or pervanandate (0.1 mM) for various times prior to termination by lysing cells in cold lysis buffer (50 mM Tris, pH 7.4; 150 mM NaCl; 0.2 mM Na3VO4; 20 mm NaF; 1% Nonidet P-40; 2 mM PMSF; 20 µg/ml of Aprotinin and 1 mM of sodium molybdic acid). To determine the effect of sodium stibogluconate or potassium antimonyl tartrate on IL-3-induced Jak/Stat phosphorylation, Baf3 cells were deprived of the growth factor for 16 hours in 0.1% FCS RPMI 1640 medium and then incubated with or without sodium stibogluconate or potassium antimonyl tartrate for 10 minutes. IL-3 was next added to the cell suspension and incubated for various times. The Cells were then harvested and lysed in cold lysis buffer at 4° C. for 45 minutes. Total cell lysates (TCL) were separated in SDS-PAGE gels, blotted onto nitrocellulose membrane (Schleicher & Schuell), probed with specific antibodies and detected using an enhanced chemiluminescence kit (ECL, Amersham, Arlington Heights, Ill.).

NB4 cells = experiment: NB4 differentiation (NBT reduction, CD11b); type: cell-based, human; conditions: 6 days with drug (10 or 100 μg/ml), washed, 6 days without
Procedure: Differentiation of AML cell lines was assessed by their ability to produce superoxide as measured by reduction of NBT to formazan and by analysis of expression of CD11b surface marker by flow cytometry. For NBT reduction, each cell suspension was mixed with an equal volume of solution containing 1 mg/ml of NBT (Sigma) and 2.5 µg/ml of TPA for 30 minutes at 37° C. After incubation, cells containing the purple formazan deposits and cells devoid of NBT-reducing activity (white cells) in each sample were determined by counting 200 cells under microscope. Data is expressed as a percentage based on the following ratio: purple cells/purple+white cells. For analysis of cell surface antigens, cells were exposed to phycoerythrin (PE)-conjugated murine anti-human CD11b (DAKO Corp., Carpinteria, Calif.). Analysis of fluorescence was performed on a FACScan flow cytometer (Beckton Dickinson, Mountain View, Calif.).

[2] = system: A549, Hey, LoVo, SK-N-SH, U251 and DU145 cell lines; experiment: Growth of human cancer cell lines that express PRLs, MTT assay; type: cell-based; conditions: 100 μg/ml, day 6
Procedure: NIH3T3 (Yi, et al., Blood 85, 87 (1995)), WM9 (Forsberg, et al., Proc. Nat. Acad. Sci. USA 90, 393 (1993)), DU145 (Mickey, et al., Cancer Res. 37, 4049 (1977)), LoVo (Drewinko, et al., Cancer Res. 36, 467 (1976)), HEY (Buick, et al., Cancer Res. 45, 3668 (1985)), U251 (Yoshida, et al., Cancer 50, 410 (1982)), A549 (Giard, et al., J. Natl. Cancer Inst. 51, 1417 (1973)) and SK-N-SH (Helson, et al., Cancer Res. 35, 2594 (1975)) cell lines have been described and were cultured in RPMI 1640 supplemented with 10% fetal calf serum (FCS). For measurement of sodium stibogluconate effects on cell growth in vitro, cells were cultured in the absence (−) or presence (+) of various amounts of sodium stibogluconate for 6 days with viable cells quantified by MTT assays (Mosmann, J. Immunol. Methods 65, 55 (1983)). Percentages of growth inhibition by sodium stibogluconate were calculated (.+−.x %).

Renca cells = experiment: Renca cell growth in culture, MTT assay; type: cell-based, murine; conditions: SSG 6.25-200 μg/ml, 6 days; listed as SSG
Description: Renca (Murphy, G. P., and W. J. Hrushesky. 1973. A murine renal cell carcinoma. J Natl Cancer Inst 50:1013), Jurkat (Gillis, S., and J. Watson. 1980. Biochemical and biological characterization of lymphocyte regulatory molecules. V. Identification of an interleukin 2-producing human leukemia T cell line. J Exp Med 152:1709) and WM9 (Forsberg, K., 1. Valyi-Nagy, C. H. Heldin, M. Herlyn, and B. Westermark. 1993. Platelet-derived growth factor (PDGF) in oncogenesis: development of a vascular connective tissue stroma in xenotransplanted human melanoma producing PDGF-BB. Proc Natl Acad Sci USA 90:393) cell lines were obtained from a colleague at the Cleveland Clinic Foundation (CCF) and cultured in RPMI 1640 medium supplemented with 10% fetal calf serum (FCS). […] SSG has been described previously (Yi, T., M. K. Pathak, D. J. Lindner, M. E. Ketterer, C. Farver, and E. C. Borden. 2002. Anticancer activity of sodium stibogluconate in synergy with IFNs. J Immunol 169:5978). For cell growth inhibition assays, cells were cultured in absence or presence of various amounts of SSG for 6 days with viable cells quantified by MTT assays as described elsewhere (Pathak, M. K., and T. Yi. 2001. Sodium stibogluconate is a potent inhibitor of protein tyrosine phosphatases and augments cytokine responses in hemopoietic cell lines. J Immunol 167:3391).

O.O.O.O.O.O.O.O.O.O=C([O-])[C@@H]1[O][Sb]2([O-])([O][Sb]34([OH])[O][C@H]([C@H](O)CO)[C@H]([O]3)[C@H](C(=O)[O-])[O]4)[O][C@H]([C@H](O)CO)[C@@H]1[O]2.[Na+].[Na+].[Na+] [sodium stibogluconate]
induced cellular protein tyrosine phosphorylation ([1]; Baf3 cells, in comparison with pervanadate (0.1 mM)): modest and transient
phosphotyrosine levels of Jak2 and Stat5 relative to cells without drug treatment ([1]; IL-3-stimulated Baf3 cells, densitometry): about twice
Jak2/Stat5 tyrosine phosphorylation by drug alone ([1]; no IL-3, 37 °C for 16 hours): failed to induce
reversal of NB4 differentiation after drug removal (NB4 cells): not reversed
cell killing of the cell lines [2]: near-complete cell killing
Renca cell growth in culture (Renca cells): failed to inhibit Renca cell proliferation in culture
